Among the data in US20190367516A1 (Bayer Pharma Aktiengesellschaft, priority 2015, published 2019) are EC50, Emax and Efficiency values, retold here.

The structures appear in SMILES notation. Read-outs that look alike come from different tables or passages of the source.

The target in the test is T1, human M2 receptor (Homo sapiens, UniProt P08172).
T1 sequence (P08172 1-466): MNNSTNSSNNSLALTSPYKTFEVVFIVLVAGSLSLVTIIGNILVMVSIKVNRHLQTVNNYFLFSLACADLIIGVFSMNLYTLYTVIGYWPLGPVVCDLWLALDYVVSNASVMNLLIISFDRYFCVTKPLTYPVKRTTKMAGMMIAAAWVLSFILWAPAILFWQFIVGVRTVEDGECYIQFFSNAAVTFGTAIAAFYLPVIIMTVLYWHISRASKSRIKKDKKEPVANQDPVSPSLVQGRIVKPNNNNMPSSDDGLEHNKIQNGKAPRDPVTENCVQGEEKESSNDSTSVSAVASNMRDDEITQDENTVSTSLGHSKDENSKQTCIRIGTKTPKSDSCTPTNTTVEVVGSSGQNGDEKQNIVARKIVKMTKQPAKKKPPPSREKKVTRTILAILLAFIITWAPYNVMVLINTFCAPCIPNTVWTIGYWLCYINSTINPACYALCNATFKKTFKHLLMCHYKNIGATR
The following applies: M2-GIRK1/4 reporter cells; for EC50: in some cases mean of two or more determinations; for Emax: read-out: Efficiency, boosting of the acetylcholine effect at EC20 acetylcholine concentration.

Where [1] appears, read: Receptor activity EC50, allosteric potency at EC20 acetylcholine.

Regarding `O=C(NC12CC(F)(C1)C2)c1cn(-c2c(F)cc(F)cc2Cl)c2nc(N3C[C@@H](O)[C@H](O)C3)ccc2c1=O` [Example 401, 1-(2-Chloro-4,6-difluorophenyl)-7-[(3R,4R)-3,4-dihydroxypyrrolidin-1-yl]-N-(3-fluorobicyclo[1.1.1]pent-1-yl)-4-oxo-1,4-dihydro-1,8-naphthyridine-3-carboxamide], the Emax amounted to 95.5%. For the same compound, the EC50 under setting [1] is 41 nM.
The corresponding values for `CC(C)(NC(=O)c1cn(-c2c(F)cc(F)cc2F)c2nc(N3C[C@@H](O)[C@H](O)C3)ccc2c1=O)C(F)(F)F` [Example 403] are 100% and 32 nM.
The corresponding values for `O=C(N[C@H](C1CC1)C(F)(F)F)c1cn(-c2c(F)cc(F)cc2F)c2nc(N3CC4CC4(O)C3)ccc2c1=O` (stereo partly drawn) [Example 405, N-[(1R)-1-Cyclopropyl-2,2,2-trifluoroethyl]-7-[1-hydroxy-3-azabicyclo[3.1.0]hex-3-yl]-4-oxo-1-(2,4,6-trifluorophenyl)-1,4-dihydro-1,8-naphthyridine-3-carboxamide] are 95.5% and 8 nM.
As for `CC[C@@H](NC(=O)c1cn(-c2c(F)cc(F)cc2Cl)c2nc(N3CC4CC4(O)C3)ccc2c1=O)C(F)(F)F` (stereo partly drawn) [Example 406, 1-(2-Chloro-4,6-difluorophenyl)-7-[1-hydroxy-3-azabicyclo[3.1.0]hex-3-yl]-4-oxo-N-[(2R)-1,1,1-trifluorobutan-2-yl]-1,4-dihydro-1,8-naphthyridine-3-carboxamide], the Emax is 88%. Under setting [1], this compound came in with an EC50 of 9 nM.
The corresponding values for `C[C@H](NC(=O)c1cn(-c2c(F)cc(F)cc2Cl)c2nc(N3CC4CC4(O)C3)ccc2c1=O)C(F)(F)F` (stereo partly drawn) [Example 408, 1-(2-Chloro-4,6-difluorophenyl)-7-[1-hydroxy-3-azabicyclo[3.1.0]hex-3-yl]-4-oxo-N-[(2S)-1,1,1-trifluoropropan-2-yl]-1,4-dihydro-1,8-naphthyridine-3-carboxamide] are 94% and 9 nM.
For `C[C@H](NC(=O)c1cn(-c2c(F)cc(F)cc2Cl)c2nc(N3CCNC3=O)ccc2c1=O)C(F)(F)F` [Example 419, 1-(2-Chloro-4,6-difluorophenyl)-4-oxo-7-(2-oxoimidazolidin-1-yl)-N-[(2S)-1-1,1,1-trifluoropropan-2-yl]-1,4-dihydro-1,8-naphthyridine-3-carboxamide], in that order: 91.5% and 46 nM.
For `C[C@@H](COC(F)(F)F)NC(=O)c1cn(-c2c(F)cc(F)cc2Cl)c2nc(N3C[C@@H](O)CC3=O)ccc2c1=O` [Example 421, 1-(2-Chloro-4,6-difluorophenyl)-7-[(4S)-4-hydroxy-2-oxopyrrolidin-1-yl]-4-oxo-N-[(2S)-1-(trifluoromethoxy)propan-2-yl]-1,4-dihydro-1,8-naphthyridine-3-carboxamide], in that order: 100% and 48 nM.
Turning to `CC[C@H](NC(=O)c1cn(-c2c(F)cc(F)cc2Cl)c2nc(N3C(=O)CC[C@@H]3CO)ccc2c1=O)C(F)(F)F` [Example 430, 1-(2-Chloro-4,6-difluorophenyl)-7-[(2R)-2-(hydroxymethyl)-5-oxopyrrolidin-1-yl]-4-oxo-N-[(2)-1,1,1-trifluorobutan-2-yl]-1,4-dihydro-1,8-naphthyridine-3-carboxamide], the Emax was 90%. Also, the EC50 under setting [1] is 61 nM.
With `CC[C@@H](NC(=O)c1cn(-c2ccc(F)cc2F)c2nc(N3CCC(C)C3=O)ccc2c1=O)C(F)(F)F` (stereo partly drawn) [Example 431, 1-(2,4-Difluorophenyl)-7-[3-methyl-2-oxopyrrolidin-1-yl]-4-oxo-N-[(2R)-1,1,1-trifluorobutan-2-yl]-1,4-dihydro-1,8-naphthyridine-3-carboxamide], the Emax is 98%. The same compound yielded an EC50 under setting [1] of 92 nM.
Consider `CC[C@@H](NC(=O)c1cn(-c2ccc(F)cc2F)c2nc(N3C(=O)NCC3C)ccc2c1=O)C(F)(F)F` (stereo partly drawn) [Example 434, 1-(2,4-Difluorophenyl)-7-[5-methyl-2-oxoimidazolidin-1-yl]-4-oxo-N-[(2R)-1,1,1-trifluorobutan-2-yl]-1,4-dihydro-1,8-naphthyridine-3-carboxamide], for which the Emax stood at 92%. The response under setting [1] was half-maximal at 61 nM (EC50).
Turning to `O=C(N[C@H](C(F)F)C1CC1)c1cn(-c2c(F)cc(F)cc2F)c2nc(N3C[C@@H](O)CC3=O)ccc2c1=O` [Example 435, N-[(1 S)-1-Cyclopropyl-2,2-difluoroethyl]-7-[(4S)-4-hydroxy-2-oxopyrrolidin-1-yl]-4-oxo-1-(2,4,6-trifluorophenyl)-1,4-dihydro-1,8-naphthyridine-3-carboxamide], the Emax was found to be 100%. Also, under setting [1], the EC50 was 84 nM.
Regarding `CC(NC(=O)c1cn(-c2c(F)cc(F)cc2F)c2nc(N3C[C@@H](O)[C@H](O)C3)ccc2c1=O)(C1CC1)C(F)(F)F` (stereo partly drawn) [Example 443, N-[2-Cyclopropyl-1,1-trifluoropropan-2-yl]-7-[(3R,4R)-3,4-dihydroxypyrrolidin-1-yl]-4-oxo-1-(2,4,6-trifluorophenyl)-1,4-dihydro-1,8-naphthyridine-3-carboxamide], the Efficiency (boosting of the acetylcholine effect at EC20 acetylcholine concentration) came to 100.0%. The EC50 (read-out: Receptor activity EC50, allosteric potency at EC20 acetylcholine) was determined as 9 nM.
Consider `C[C@@H]1CN(c2ccc3c(=O)c(C(=O)N[C@@H](C4CC4)C(F)(F)F)cn(-c4c(F)cc(F)cc4F)c3n2)C(=O)O1` [Example 444, N-[(1S)-1-Cyclopropyl-2,2,2-trifluoroethyl]-7-[(5R)-5-methyl-2-oxo-1,3-oxazolidin-3-yl]-4-oxo-1-(2,4,6-trifluorophenyl)-1,4-dihydro-1,8-naphthyridine-3-carboxamide], for which the Emax was found to be 100%. This compound also yielded an EC50 under setting [1] of 51 nM.
As for `O=C(N[C@@H](C1CC1)C(F)(F)F)c1cn(-c2c(F)cc(F)cc2F)c2nc(N3CC4(CC4)NC3=O)ccc2c1=O` [Example 450, N-[(1 S)-1-Cyclopropyl-2,2,2-trifluoroethyl]-4-oxo-7-(5-oxo-4,6-diazaspiro[2.4]hept-6-yl)-1-(2,4,6-trifluorophenyl)-1,4-dihydro-1,8-naphthyridine-3-carboxamide], the Emax is 78.5%. Moreover, under setting [1], the EC50 came out at 19 nM.
As to `O=C(N[C@@H](C1CC1)C(F)(F)F)c1cn(-c2c(F)cc(F)cc2F)c2nc(N3CCC(F)(CO)CC3)ccc2c1=O` [Example 461, N-[(1 S)-1-Cyclopropyl-2,2,2-trifluoroethyl]-7-[4-fluoro-4-(hydroxymethyl)piperidin-1-yl]-4-oxo-1-(2,4,6-trifluorophenyl)-1,4-dihydro-1,8-naphthyridine-3-carboxamide], the Emax is 89%. The same compound returned a concentration for a half-maximal effect (EC50) under setting [1] of 39 nM.
For `O=C(N[C@@H](C1CC1)C(F)(F)F)c1cn(-c2c(F)cc(F)cc2F)c2nc(N3CC[C@@H](O)C3=O)ccc2c1=O` [Example 466, N-[(1 S)-1-Cyclopropyl-2,2,2-trifluoroethyl]-7-[(3R)-3-hydroxy-2-oxopyrrolidin-1-yl]-4-oxo-1-(2,4,6-trifluorophenyl)-1,4-dihydro-1,8-naphthyridine-3-carboxamide], in that order: 100% and 26 nM.
With `O=C(N[C@@H](C1CC1)C(F)(F)F)c1cn(-c2c(F)cc(F)cc2F)c2nc(N3CC[C@H](O)C3=O)ccc2c1=O` [Example 467, N-[(1 S)-1-Cyclopropyl-2,2,2-trifluoroethyl]-7-[(3S)-3-hydroxy-2-oxopyrrolidin-1-yl]-4-oxo-1-(2,4,6-trifluorophenyl)-1,4-dihydro-1,8-naphthyridine-3-carboxamide], the Emax is 97.5%. Under setting [1], the midpoint of the response, the EC50, lay at 42 nM.
The corresponding values for `O=C(N[C@@H](C1CC1)C(F)(F)F)c1cn(-c2c(F)cc(F)cc2F)c2nc(N3CCC(CO)C3=O)ccc2c1=O` (stereo partly drawn) [Example 468, N-[(1 S)-1-Cyclopropyl-2,2,2-trifluoroethyl]-7-[3-(hydroxymethyl)-2-oxopyrrolidin-1-yl]-4-oxo-1-(2,4,6-trifluorophenyl)-1,4-dihydro-1,8-naphthyridine-3-carboxamide] are 98.5% and 23 nM.
Turning to `CC(C)(C)NC(=O)c1cn(-c2c(F)cc(F)cc2F)c2nc(N3C[C@@H](O)CC3=O)ccc2c1=O` [Example 469, N-tert-Butyl-7-[(4S)-4-hydroxy-2-oxopyrrolidin-1-yl]-4-oxo-1-(2,4,6-trifluorophenyl)-1,4-dihydro-1,8-naphthyridine-3-carboxamide], the Emax came out at 100%. Besides, under setting [1], it took 20 nM to reach a half-maximal effect (EC50).
The corresponding values for `C[C@@H](NC(=O)c1cn(-c2c(F)cc(F)cc2F)c2nc(N3C[C@@H](O)[C@H](O)C3)ccc2c1=O)C1CC1` [Example 470, N-[(1R)-1-Cyclopropylethyl]-7-[(3R,4R)-3,4-dihydroxypyrrolidin-1-yl]-4-oxo-1-(2,4,6-trifluorophenyl)-1,4-dihydro-1,8-naphthyridine-3-carboxamide] are 98.5% and 104 nM.
For the compound `CC(C)[C@H](C)NC(=O)c1cn(-c2c(F)cc(F)cc2F)c2nc(N3C[C@@H](O)[C@H](O)C3)ccc2c1=O` [Example 472, 7-[(3R,4R)-3,4-Dihydroxypyrrolidin-1-yl]-N-[(2S)-3-methylbutan-2-yl]-4-oxo-1-(2,4,6-trifluorophenyl)-1,4-dihydro-1,8-naphthyridine-3-carboxamide], the Emax is 90%. This compound also had an EC50 under setting [1] of 29 nM.

What is called EC50 is the concentration giving half of the maximal effect.
